# Patent US12605358B2, “Composition for preventing or treating nervous system diseases comprising compound that inhibits mTOR signaling pathway as active ingredient” (ALIAD BIOPHARMA, priority 2021, dated 2026)
# Columns and labels:
# 5xFAD transgenic mice = assay: Autophagy activation in neurons and microglia (Iba-1/MAP2/LC3 staining); assay type: in vivo; conditions: FIG. 16
# Method: 5xFAD animals were administered with HN-1703 at three doses for 14 days to male heterozygotes aged 6 months (all born within 3 days). The behaviors of mice were measured in a dark cycle in which the mice were active while alternating light and dark in a 12-hour cycle in a breeding room chamber, and the mice were freely accessible to food and water and bred in compliance with experimental animal ethical guidelines of Kyung Hee University. In each group, the HN-1703 was intraperitoneally injected at the same time once a day in a volume of 100 μl to 12 mice in a normal group (wild type littermate), 9 5xFAD mice in a vehicle (DMSO administration), 8 5xFAD mice in a 5 mg/kg administered group, 9 5xFAD mice in a 10 mg/kg administered group, and 9 5xFAD mice in a 20 mg/kg administered group. […] In a behavioral measurement room, humidity (40 to 60%) and temperature (22 to 26° C.) were maintained, and reflected light was maintained to avoid sound and light effects. Behavioral measures were measured in Y-maze, Morris Water Maze, and Passive Avoidance test for 18 days in sequence.
# A brain slice immunostaining method was modified and used as described in Heo H et al. (J Ethnopharmacol, 2009). Mice were transcardially perfused with 4% PFA. After being immersed and fixed in 4% PFA for 4 hours, the brain tissue was unfrozen in 30% sucrose, frozen in an optimal cutting temperature (OCT) mixture, and stored at −80° C. Brain tissue slices were sectioned in a coronal direction at a thickness of 35 μm. The brain tissue slices were immersed in a storage solution (30% glycerol, 30% ethylene glycol, PBS) and stored at 4° C. The stored brain slices were permeabilized in 0.5% Triton X-100 for 20 minutes and shaken in 2 N HCl for 30 minutes at 37° C. Then, the brain slices were blocked in a free-floating state for 2 hours in 15% standard serum, 3% bovine serum albumin (BSA, bio-WORLD, Dublin, OH, USA) and 0.1% Triton X-100. The slices were shaken with a first antibody for 16 hours at 4° C. Thereafter, a second antibody complementary to the first antibody was attached at room temperature (22±1° C.) for 45 minutes. Then, the nuclei were washed with physiological saline (PBS) containing 1 μg/ml PI (propidiumiodide, Sigma) or DAPI (1:4000), and then placed on a slide glass and sealed using an aqueous mount, and observed under a confocal scanning microscope for tissue observation (LSM 810 Carl Zeiss, Oberkochen, Germany). […]
# FIG. 16 illustrates confocal scanning micrographs of the hippocampal dentate gyrus region after triple staining with an Iba-1 antibody, an MAP2 antibody, and an LC3 antibody, and quantifying the number of LC3+/MAP2+ cells, the number of LC3+/Iba-1+ cells, the number of MAP2+ cells, and the number of Iba-1+ cells.
# mTORC1 = biological target: T1, mTORC1 (Homo sapiens, UniProt P42345); assay: mTORC1 inhibition, immunoblot of S6K Thr389 phosphorylation in HeLa cells; assay type: cell-based; conditions: at 40 µM, FIG. 2A
# T1 construct: endogenous in cells; host or cells: HeLa
# Method: HeLa cells were cultured in DMEM (Dulbesco's Modified Eagles Media) containing 10% FBS, penicillin (100 units/ml), and streptomycin (100 μg/ml) at 37° C. in a 5% CO2 incubator. Culture was started by seeding 4×10^5 cells in a 100 mm culture dish, and subcultured every 3 days.
# Immunoblot analysis was performed by the following method. SDS-PAGE-developed proteins were electroblotted and transferred and a PVDF membrane was blocked by shaking for 1 hour in a TBS-T buffer (20 mM Tris, 137 mM NaCl, 0.1% Tween 20) containing 5% skim milk. The membrane was repeatedly washed with a TBS-T buffer three times for 5 minutes, and reacted with a first antibody diluted in a TBS-T buffer containing 5% skim milk or 5% BSA overnight at 4° C. Thereafter, the membrane was repeatedly washed with a TBS-T buffer three times for 5 minutes, and reacted with a second antibody diluted in a TBS-T buffer containing 5% skim milk for 30 minutes at room temperature. The membrane was repeatedly washed with a TBS-T buffer containing 5% skim milk five times for 5 minutes, and then protein bands bound to the second antibody were detected by a chemiluminescence method. […]
smiles,measurement,setting,value
"COc1cc(OC)c2c(=O)c3cc4c(cc3oc2c1)OCO4 [HN-1703, 7,9-dimethoxy-10H-[1,3]dioxolo[4,5-b]xanthen-10-one]","activated microglia, Iba-1+ cells","5xFAD transgenic mice; 5 to 20 mg/kg, compared to the 5xFAD-DMSO control group",greatly reduced
same,number of neurons double-stained with MAP2 and LC3-II,5xFAD transgenic mice,increased in a dose-dependent manner
same,number of MAP2+ neurons in the dentate gyrus,5xFAD transgenic mice; approaches the WT normal group,increased in a dose-dependent manner
same,autophagy-activated microglia double-stained with LC3-II,"5xFAD transgenic mice; compared to the 5xFAD-DMSO control group, dose-dependent",increased twice or more
same,inhibition of mTORC1 activity (S6K Thr389 phosphorylation) compared to the control group,mTORC1,48%
